Test systems include NCI-H522; COLO 205; UACC-62; HCC 2998; MOLT-4; RPMI-8226; Hs-578T; HCT-15; HT-29; OVCAR-8; CAKI-1; SF-539; IGROV-1; HCT-116; CCRF-CEM; BT-549; SNB-19; 786-0; OVCAR-3; NCI-H460.
Experiment in all cases: growth of human tumour cells (NCI), 48 h

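Five compound concentrations were applied to cells in 96-well plates for 48 hours; endpoints were derived by simple linear interpolation of the resulting dose-response curve. GI50 marks 50% less growth.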 Active and inactive are the calls of the source. Rule as the data show it: active = GI50 up to about 1.1 µM and inactive = higher.

As for `CN(C)CCNC(=O)c1cccc2nc3c(nc12)-c1ccccc1C3=O`, the GI50 with NCI-H522 was 13.5 µM (inactive); with COLO 205, 17.6 µM (inactive); with UACC-62, 19.1 µM (inactive); with HCC 2998, 15 µM (inactive); with MOLT-4 it was 0.721 µM (active); in the experiment on RPMI-8226 it was 7.38 µM (inactive). Moreover, the GI50 in the experiment with Hs-578T is 18.5 µM (inactive); in the experiment with HCT-15, 10.3 µM; in the experiment on HT-29 it was 6.76 µM (inactive); in the experiment on OVCAR-8 it was 16.4 µM (inactive); in the experiment with CAKI-1, 13.6 µM (inactive); with SF-539 it was 10.2 µM (inactive). In addition, the GI50 is 20.9 µM (inactive) with IGROV-1; 12.7 µM (inactive) in the experiment on HCT-116; 2.56 µM (inactive) with CCRF-CEM; 14.3 µM (inactive) with BT-549; 18.3 µM (inactive) with SNB-19; 8.11 µM (inactive) with 786-0. Also, the GI50 in the experiment with OVCAR-3 was 16.6 µM (inactive); in the experiment on NCI-H460, 4.99 µM (inactive).
As to `CC(=O)O[C@@H]1C[C@@]2(C)[C@@H]3CC=C4[C@@H](C[C@H](O)C(=O)C4(C)C)[C@]3(C)C(=O)C[C@]2(C)[C@H]1[C@@](C)(O)C(=O)/C=C/C(C)(C)OC(C)=O`, the GI50 in the experiment with NCI-H522 is 0.541 µM (active); in the experiment with COLO 205 it was 1.5 µM (inactive); with UACC-62 it was 2.63 µM (inactive); in the experiment on HCC 2998, 0.035 µM (active); in the experiment with MOLT-4 it was 3.33 µM (inactive); in the experiment with RPMI-8226, 2.02 µM (inactive). Also, the GI50 with Hs-578T is 4.71 µM (inactive); in the experiment on HCT-15, 0.875 µM; in the experiment on HT-29, 1.08 µM (active); in the experiment on OVCAR-8 it was 1.47 µM (inactive); with CAKI-1, 0.211 µM (active); with SF-539, 1.25 µM (inactive). The GI50 in the experiment on IGROV-1 is 0.368 µM (active); in the experiment with HCT-116, 1.63 µM (inactive); in the experiment with CCRF-CEM it was 1.61 µM (inactive); with BT-549, 0.336 µM (active); in the experiment with SNB-19 it was 3.21 µM (inactive); with 786-0 it was 0.352 µM (active). The GI50 in the experiment with OVCAR-3 is 4.81 µM (inactive); with NCI-H460, 0.428 µM (active).
In the case of `CCCCC1(NN=C2CCCCC2)C(=O)N(c2ccccc2)N(c2ccccc2)C1=O`, the GI50 is 83 µM (inactive) in the experiment with NCI-H522; > 100 µM (inactive) in the experiment with COLO 205; > 100 µM (inactive) with UACC-62; > 100 µM (inactive) in the experiment with HCC 2998; 26.2 µM (inactive) in the experiment with MOLT-4; 62.1 µM (inactive) in the experiment with RPMI-8226. The GI50 in the experiment on Hs-578T is > 100 µM (inactive); in the experiment with HCT-15, more than 100 µM; in the experiment with HT-29, > 100 µM (inactive); with OVCAR-8, > 100 µM (inactive); in the experiment with CAKI-1 it was > 100 µM (inactive); in the experiment on SF-539, > 100 µM (inactive). Besides, the GI50 in the experiment with IGROV-1 was > 100 µM (inactive); in the experiment on HCT-116 it was > 100 µM (inactive); in the experiment on CCRF-CEM it was 21.6 µM (inactive); with BT-549, > 100 µM (inactive); in the experiment on SNB-19 it was > 100 µM (inactive); in the experiment on 786-0 it was > 100 µM (inactive). Besides, the GI50 in the experiment with OVCAR-3 and in the experiment on NCI-H460 was > 100 µM (inactive) in each case.
Regarding `C=CC(Cl)(CBr)CCC(Br)=C(C)C` (stereo not given), the GI50 in the experiment on NCI-H522 is 16.9 µM (inactive); with COLO 205, 17.9 µM (inactive); in the experiment on UACC-62 it was 18.6 µM (inactive); in the experiment on HCC 2998, 23.6 µM (inactive); in the experiment with MOLT-4 it was > 100 µM (inactive); in the experiment with RPMI-8226 it was 21.1 µM (inactive). Moreover, the GI50 was 28.2 µM (inactive) in the experiment with Hs-578T; 10.4 µM with HCT-15; 19.5 µM (inactive) in the experiment with HT-29; 24.9 µM (inactive) in the experiment on OVCAR-8; 9.31 µM (inactive) in the experiment with CAKI-1; 21.4 µM (inactive) in the experiment with SF-539. Besides, the GI50 was 12.1 µM (inactive) with IGROV-1; 23.6 µM (inactive) in the experiment with HCT-116; 26 µM (inactive) with CCRF-CEM; 21.5 µM (inactive) in the experiment with BT-549; 34.5 µM (inactive) in the experiment on SNB-19; 25.6 µM (inactive) with 786-0. Also, the GI50 in the experiment on OVCAR-3 is 24.5 µM (inactive); in the experiment with NCI-H460, 18.9 µM (inactive).

Values taken from ChEMBL document CHEMBL1201862, “PubChem BioAssay data set” (2004).
